For data set [1], the target named is truncated human beta-secretase, BACE1 (amino acids 1-454) (Homo sapiens (Human), UniProt P56817). The experiment in a line: BACE1 Assay (Assay 1), fluorescence quench assay. Format: biochemical. The note with it: pH 4.4. As to the method:
The substrate was dissolved at 1 mg/ml in DMSO.
The assay was performed in the presence of OptiMEM™ (supernatant collected over 24 h and cleared from cellular debris by centrifugation) containing the ectodomain of BACE1, 25 μl water containing the desired 2-fold concentration of test compound and 2% DMSO, 1 μM substrate peptide, 20 mM NaOAc, pH 4.4, and 0.04% Triton-X100 in a total assay volume of 50 μl in a 384 well plate. In general, 25 μl of compound dilution were added to the plate followed by the addition of 10 μl of BACE1 containing OptiMEM™ diluted 1:10 in water with 0.2% Triton X-100. The reaction was started with the addition of 15 μl substrate in NaOAc buffer. The reaction was incubated at rt (dark) in an Envision® multilabel reader (Perkin Elmer) and the cleavage of the substrate was recorded as kinetic for […] at ex: 485 nm, em: 538 nm. Blank wells containing no enzyme were included on each plate.
The intensity of fluorescence was regressed against time in order to derive velocities of reaction in all 384 wells. These velocities were used for calculating percent control using an uninhibited control containing 1% DMSO as 100% and a blank control performed in the absence of enzyme as 0%. IC50 values were calculated by fitting percent control vs. test compound concentration using Assay Explorer®.

Data set [2] can be described thus: In Vitro Phospholipidosis Assay (Assay 3), Nile red staining. Conditions: human, first effect concentration, U937 cells, read-out: Phospholipidosis FEC IC50 μM (assay 3). The class given is cell-based, human. On the procedure: In Vitro Phospholipidosis Assay (Assay 3)
The phospholipidogenic potential of test compounds was assayed using the human hematopoetic U937 cell line. The test principle was to analyze the phospholipid content by staining the cells with the fluorescent dye Nile red.
U937 cells were seeded into cell culture plates at 0.5×10^6 cells/mL in RPMI medium containing 10% FBS, 1% DMSO, and 0.005% gentamicin. The cells were cultivated with or without different concentrations of test compound for 48 h under standard culture conditions.
For harvesting, the cells were centrifuged at 130×g for 4 min and washed once with PBS. Then, 2×0.5 mL cell suspensions were prepared for non-fixed cell measurement (0.5 mL for propidium iodide (PI) viability measurement and 0.5 mL for Nile red measurement).
The remaining cells were fixed with 3.7% formaldehyde for 30 min. After a further centrifugation step, cells were resuspended with 1.3 mL Nile red working solution (1 μg/mL) and incubated for 5 min at rt. The cell suspension was washed twice with 3 mL PBS and centrifuged with 130×g for 4 min. The supernatant was discarded and the cells were resuspended with 0.5 mL PBS and kept for flow cytometry measurement.
For Nile red staining of the 0.5 mL non-fixed cell samples, 50 μL of a ready to use Nile red solution (10 μg/mL) were added per sample. Samples were kept on ice for 5 min. Thereafter, they were washed once with 4 mL PBS (4° C., 250×g for 8 min) and finally resuspended in 400 μL PBS and kept for flow cytometry measurement.
For the viability measurement, 12.5 μL of the ready to use PI solution (10 μg/mL) were added to the 0.5 mL non-fixed cell suspension. After 15 min of incubation on ice, the samples were measured by flow cytometry using a Coulter Epics XL/MCL flow cytometer.
The viability of the cells of each sample was determined by flow cytometry measurement of the PI content at channel 2 (568-590 nm). Cut-off gates for the fluorescence-dependent differentiation between live and dead cells were defined based on the analysis of cell culture medium control samples.
Only samples with a cell viability of >=90% relative to control samples were analyzed for phospholipidosis. Each Nile red sample (non-fixed and fixed samples) was measured by flow cytometry at channel 1 (504-541 nm) and channel 4 (660-680 nm).
For each channel, relative Nile red fluorescence intensity of a test sample was calculated compared to control samples and expressed as a percentage of control fluorescence intensity. The assessment of the phospholipidogenic potential and the first effective concentration (FEC) of a test compound was done manually based on the fluorescence intensities at both wavelengths for the fixed cells, as well as for the non-fixed cells.

Our source for the IC50 values is US9018391B2, “Inhibitors of beta-secretase” (Boehringer Ingelheim International GmbH, priority 2012, dated 2015).

The IC50 is the concentration that inhibits the measured activity by half.

Chain of truncated human beta-secretase, BACE1 (amino acids 1-454) (P56817 22-454): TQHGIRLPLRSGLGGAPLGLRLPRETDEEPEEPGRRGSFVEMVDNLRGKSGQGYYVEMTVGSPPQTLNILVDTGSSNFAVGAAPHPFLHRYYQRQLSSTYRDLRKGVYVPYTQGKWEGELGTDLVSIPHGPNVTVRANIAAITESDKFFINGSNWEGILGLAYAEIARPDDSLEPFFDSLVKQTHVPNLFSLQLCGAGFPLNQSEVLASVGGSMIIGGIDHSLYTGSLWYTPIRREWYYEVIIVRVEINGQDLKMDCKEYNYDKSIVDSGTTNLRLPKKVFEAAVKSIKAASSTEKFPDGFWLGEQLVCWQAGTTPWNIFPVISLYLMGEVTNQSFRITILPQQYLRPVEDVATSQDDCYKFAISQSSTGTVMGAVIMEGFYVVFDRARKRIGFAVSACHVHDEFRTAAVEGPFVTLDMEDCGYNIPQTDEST

For `CC[C@@H]1C[C@@]2(Cc3ccc(C#N)cc3[C@]23N=C(N)N(CC(C)(C)F)C3=O)C[C@H](C)[C@H]1O` [Example 7], half-maximal inhibition in data set [1] (IC50) required 3.4 nM. Also, the IC50 at 48 h in data set [2] stood at 400 µM.

Take `C[C@@H]1C[C@@]2(Cc3ccc(C#N)cc3[C@]23N=C(N)N(CCC(F)(F)F)C3=O)C[C@H](C)[C@H]1O` [Example 1]: 14.6 nM corresponded to half-maximal inhibition in data set [1] (IC50). Also, the IC50 at 48 h in data set [2] amounted to 400 µM.

Compound `C[C@@H]1C[C@@]2(Cc3ccc(C#N)cc3[C@]23N=C(N)N(CC(C)(C)F)C3=O)C[C@H](C)[C@H]1O` [Example 2] displayed an IC50 in data set [1] of 10.3 nM. The IC50 at 48 h in data set [2] is 400 µM.

Regarding `C[C@@H]1C[C@@]2(Cc3ccc(C#N)cc3[C@]23N=C(N)N(CC2(F)CCOCC2)C3=O)C[C@H](C)[C@H]1O` [Example 4], the IC50 in data set [1] came to 2.7 nM. Moreover, the IC50 at 48 h in data set [2] came to 800 µM.

Regarding `CC[C@@H]1C[C@]2(CC[C@H]1O)Cc1ccc(C#N)cc1[C@]21N=C(N)N(CC(C)(C)F)C1=O` [Example 9], the IC50 in data set [1] is 10.7 nM. Besides, in data set [2], the IC50 at 48 h worked out at 400 µM.
